Measurements from patent US11873298B2, “Compounds and uses thereof” (JANSSEN PHARMACEUTICA NV, priority 2017, dated 2024).

Key:
SCD1 = target: T1, SCD1 (Homo sapiens, UniProt O00767); experiment: Growth inhibition of humanized yeast strain expressing SCD1 as sole desaturase; assay type: cell-based
T1 construct: host or cells: S. cerevisiae ole1Δ strain (W303 pdr1Δ pdr3Δ background), plasmid pRS316 with TDH3 promoter and CYC1 terminator
T1 sequence (O00767 1-359): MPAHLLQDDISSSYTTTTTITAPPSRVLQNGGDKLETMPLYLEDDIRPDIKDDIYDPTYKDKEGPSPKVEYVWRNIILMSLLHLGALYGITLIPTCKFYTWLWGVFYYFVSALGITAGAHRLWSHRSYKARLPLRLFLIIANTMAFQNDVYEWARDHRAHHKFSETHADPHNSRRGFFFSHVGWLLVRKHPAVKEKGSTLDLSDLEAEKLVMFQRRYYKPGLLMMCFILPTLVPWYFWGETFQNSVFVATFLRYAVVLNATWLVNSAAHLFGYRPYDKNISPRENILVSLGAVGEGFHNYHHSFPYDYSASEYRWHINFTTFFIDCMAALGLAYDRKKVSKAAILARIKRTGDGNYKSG
Method in brief: (§1)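 OD600 growth read-out. ole1Δ yeast, pdr1Δ pdr3Δ, with Ole1/SCD1/SCD5 on a plasmid; SX-Ura media throughout; 2× cell density 0.02 in CSM-Galactose; DMSO compound dilutions; humidified 30° C.; Ole1 stopped at 24 h, SCD1/SCD5 at 40 h.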

SCD5 = target: T2, SCD5 (Homo sapiens, UniProt Q86SK9); experiment: Growth inhibition of humanized yeast strain expressing SCD5 as sole desaturase; assay type: cell-based
T2 construct: host or cells: S. cerevisiae ole1Δ strain (W303 pdr1Δ pdr3Δ background), plasmid pRS316 with TDH3 promoter and CYC1 terminator
T2 sequence (Q86SK9 1-330): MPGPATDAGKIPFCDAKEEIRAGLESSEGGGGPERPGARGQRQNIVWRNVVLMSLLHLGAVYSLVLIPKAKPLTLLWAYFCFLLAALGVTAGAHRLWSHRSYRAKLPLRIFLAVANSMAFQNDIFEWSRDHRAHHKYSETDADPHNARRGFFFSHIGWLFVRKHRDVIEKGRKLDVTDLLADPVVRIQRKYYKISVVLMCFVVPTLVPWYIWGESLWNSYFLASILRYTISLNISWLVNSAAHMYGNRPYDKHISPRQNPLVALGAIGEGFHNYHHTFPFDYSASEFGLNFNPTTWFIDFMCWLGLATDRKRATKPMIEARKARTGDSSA
Method in brief: as §1

[1] = growth inhibition of humanized yeast strain expressing human SCD1
[2] = growth inhibition of humanized yeast strain expressing human SCD5
[3] = humanized yeast strain expressing SCD1
[4] = humanized yeast strain expressing SCD5

Row | Compound | IC50 (SCD1; humanized yeast strain, 40 h) [µM] | IC50 (SCD5; humanized yeast strain, 40 h) [µM] | further results
1 | COC(=O)N1CCN(c2noc(-c3ccc4cnn(C5CN(C)C5)c4c3)n2)CC1 [Compound 960] | 20.4 | 0.01 | 
2 | CC(C)(C)OC(=O)N1CCC(c2noc(-c3ccc(=O)n(C4CCOC4)c3)n2)CC1 (stereo not drawn) [Compound 1114] | > 45 | 0.116 | 
3 | CC(C)n1ncc2ccc(-c3noc(N4CCC(CO)CC4)n3)cc21 [Compound 637] |  |  | IC50 (SCD1; [1]): > 45 µM; IC50 (SCD5; [2]): > 45 µM
4 | CC(C)(C)OC(=O)N1CCC(c2nc(-c3ccc4cn(C5CCOC5)nc4c3)no2)CC1 (stereo not drawn) [Compound 655] |  |  | IC50 (SCD1; [1]): > 45 µM; IC50 (SCD5; [2]): > 45 µM
5 | Cc1nn(C)c2cc(-c3noc([C@H]4CCN(C(=O)CNC(=O)c5ccccc5)CC4(F)F)n3)ccc12 [Compound 578] |  |  | IC50 (SCD1; [3]): 8.46 µM; IC50 (SCD5; [4]): 1.49 µM
6 | CC(C)(C)CC(=O)N1CCC(c2nc(-c3ccc4cn(C(=O)C5CC5)nc4c3)no2)CC1 [Compound 674] |  |  | IC50 (SCD1; [1]): > 45 µM; IC50 (SCD5; [2]): > 45 µM
7 | CC(C)(C)OC(=O)N1CCC(c2nc(-c3ccc4cn(C5CC(=O)C5)nc4c3)no2)CC1 [Compound 786] | > 45 | > 45 | 
8 | CC(C)(C)OC(=O)N1CCC(c2nc(-c3ccc4cnn(CC5COC5)c4c3)no2)CC1 [Compound 661] |  |  | IC50 (SCD1; [1]): > 45 µM; IC50 (SCD5; [2]): 1.54 µM
9 | CCC(=O)N1CCC(c2noc(-c3ccc4cnn([C@H]5CCOC5)c4c3)n2)CC1 [Compound 1049] | > 45 | 0.012 | 
10 | C[C@@H]1C[C@@H](c2noc(-c3ccc4cnn(C5COC5)c4c3)n2)CCN1C(=O)C1CCC1 [Compound 1066] | > 45 | 0.000681 | 
11 | CC(C)n1ncc2ccc(-c3nc(C4CCN(C(=O)c5ncccc5Cl)CC4)no3)cc21 [Compound 692] |  |  | IC50 (SCD1; [1]): > 45 µM; IC50 (SCD5; [2]): 0.492 µM
12 | CC(C)n1ncc2ccc(-c3nc(N4CCN(C(=O)CC5CC5)CC4)no3)cc21 [Compound 874] | > 45 | 0.05 | 
13 | CCC(=O)N1CCC(c2noc(-c3ccc(N4CCOCC4)cc3)n2)CC1 [Compound 1166] | > 45 | > 45 | 
14 | O[C@H]1C[C@@H](n2ncc3ccc(-c4nc(N5CCn6c(Cl)cnc6C5)no4)cc32)C1 [Compound 958] | > 45 | 34.5 | 
15 | CC(C)(C)CC(=O)N1CCC(c2nc(-c3ccc4cnn(C(=O)C5COC5)c4c3)no2)CC1 [Compound 694] |  |  | IC50 (SCD1; [1]): > 45 µM; IC50 (SCD5; [2]): > 45 µM
16 | COCCOC(=O)N1CCC(c2noc(-c3ccc4cnn(C5COC5)c4c3)n2)CC1 [Compound 929] | > 45 | 4.42 | 
17 | CC(=O)N1CC(n2ncc3ccc(-c4noc(C5CCN(C(=O)OC(C)(C)C)CC5)n4)cc32)C1 [Compound 710] |  |  | IC50 (SCD1; [1]): > 45 µM; IC50 (SCD5; [2]): 0.05 µM
18 | CC(C)(C)OC(=O)N1CCC(c2nnc(-c3ccc4cnn(C5COC5)c4c3)o2)CC1 [Compound 851] | > 45 | 0.065 | 
19 | CC(C)(C)OC(=O)N1CCC(c2nnc(-c3ccc4cnn(C5CCOC5)c4c3)o2)CC1 (stereo not drawn) [Compound 971] | > 45 | 0.089 | 
20 | CC(C)(C)OC(=O)N[C@H]1CC[C@@H](c2nc(-c3ccc4cnn(C5COC5)c4c3)no2)CC1 [Compound 683] |  |  | IC50 (SCD1; [1]): > 45 µM; IC50 (SCD5; [2]): 10.1 µM
21 | CC(C)(C)OC(=O)N1CCC(c2nc(-c3ccnc(C4CCOC4)c3)no2)CC1 (stereo not drawn) [Compound 992] | > 45 | 0.081 | 
22 | CNC(=O)O[C@H]1CC[C@@H](c2nc(-c3ccc4cnn(C(C)C)c4c3)no2)CC1 [Compound 647] |  |  | IC50 (SCD1; [1]): > 45 µM; IC50 (SCD5; [2]): 9.37 µM
23 | CN1CC2CN(c3nc(-c4ccc5cn(C6COC6)nc5c4)no3)CCN2C1=O (stereo not drawn) [Compound 1143] | > 45 | > 45 | 
24 | COC(=O)N1CCN(c2nc(-c3ccc4cnn(C5COC5)c4c3)no2)CC1 [Compound 636] |  |  | IC50 (SCD1; [1]): > 45 µM; IC50 (SCD5; [2]): 1.8 µM

Row | Compound | IC50 (SCD1; humanized yeast strain, 40 h) [µM] | IC50 (SCD5; humanized yeast strain, 40 h) [µM] | further results
25 | CC(C)n1ncc2ccc(-c3cc(C4CCN(C(=O)OC(C)(C)C)CC4)on3)nc21 [Compound 835] | > 45 | > 45 | 
26 | COC(=O)N1CCC(c2noc(-c3ccnc(C4CCCO4)c3)n2)CC1 (stereo not drawn) [Compound 973] | > 45 | > 45 | 
27 | CC(C)(C(=O)N1CCC(c2noc(-c3ccnc(C4CCOC4)c3)n2)CC1)C(F)(F)F (stereo not drawn) [Compound 1175] | > 45 | 0.21 | 
28 | COC(=O)N1CCC(c2noc(-c3cccc(N4CCOCC4)c3)n2)CC1 [Compound 983] | > 45 | 1.51 | 
29 | COC(=O)N1CCN(c2noc(-c3ccc4cnn(C(C)C)c4c3)n2)CC1 [Compound 630] |  |  | IC50 (SCD1; [1]): 10.2 µM; IC50 (SCD5; [2]): 0.014 µM
30 | CC(C)C(=O)N1CCC(c2noc(N3CCc4nn(C5COC5)cc4C3)n2)CC1 [Compound 1195] | > 45 | > 45 | 
31 | CCC(=O)N1CCC(c2cc(-c3cc4c(cn3)cnn4C(C)C)no2)CC1 [Compound 1089] | > 45 | 4.68 | 
32 | CC(C)n1ncc2ccc(-c3nc(N4CCNCC4)no3)cc21 [Compound 798] | > 45 | > 45 | 
33 | CC(C)(C)OC(=O)N1CCC(c2noc(-c3cnc4cnn(C5COC5)c4c3)n2)CC1 [Compound 1047] | ≥ 45 | 0.01 | 
34 | Clc1cnc2n1CCN(c1noc(-c3ccc4cnn(C5CNC5)c4c3)n1)C2 [Compound 934] | > 45 | 0.01 | 
35 | O=C(C1CCC1)N1CCN(c2noc(-c3ccnc(NC4COC4)c3)n2)CC1 [Compound 1001] | > 45 | 15.6 | 
36 | CC(C)(C)OC(=O)N1CCC(c2nc(-c3ccc4cnn([C@H]5C[C@H](OC(=O)c6ccc([N+](=O)[O-])cc6)C5)c4c3)no2)CC1 [Compound 847] | > 45 | > 45 | 
37 | O=C(C1CCC1)N1CCC(c2noc(-c3ccc4cnn([C@@H]5CCOC5)c4c3)n2)CC1 [Compound 1093] | > 45 | 0.00253 | 
38 | CC(C)n1ncc2ccc(N3CC4(CCN(C(=O)OC(C)(C)C)CC4)OC3=O)cc21 [Compound 671] |  |  | IC50 (SCD1; [1]): > 45 µM; IC50 (SCD5; [2]): > 45 µM
39 | O=C(N1CCN(c2noc(-c3ccc4cnn(C5COC5)c4c3)n2)CC1)C12CC(C1)C2 [Compound 843] | > 45 | 0.033 | 
40 | CC(C)n1ncc2ccc(-c3noc(N4CCC(O)(CCCl)CC4)n3)cc21 [Compound 763] | 29.5 | 18 | 
41 | CC(C)(C)OC(=O)N1CCC(F)(c2noc(-c3ccc4cnn(C5COC5)c4c3)n2)CC1 [Compound 883] | > 45 | 1 | 
42 | Cc1nn(C)c2cc(-c3noc(C4CCN(CC5COC(=O)C5)CC4)n3)ccc12 (stereo not drawn) [Compound 567] |  |  | IC50 (SCD1; [3]): > 45 µM; IC50 (SCD5; [4]): > 45 µM
43 | CN(c1cc(-c2nc(C3CCN(C(=O)OC4(C)CC4)CC3)no2)ccn1)C1COC1 [Compound 1158] | > 45 | 3.5 | 
44 | COC(=O)N1CCC(c2noc(-c3ccc4cn(C5COC(C)(C)C5)nc4c3)n2)CC1 (stereo not drawn) [Compound 1095] | > 45 | 11.1 | 
45 | CC1(C(=O)N2CCC(c3noc(-c4ccnc(C5CCOC5)c4)n3)CC2)CCC1 (stereo not drawn) [Compound 1179] | > 45 | 0.11 | 
46 | COC(=O)N1CCC(c2nc(N3CCc4cnn(C(C)C)c4C3)no2)CC1 [Compound 908] | > 45 | 0.19 | 
47 | CC1(OC(=O)N2CCC(c3noc(-c4ccnc(C5CCOC5)c4)n3)CC2)CC1 (stereo not drawn) [Compound 1016] | > 45 | 0.0614 | 
48 | CC(=O)N1CC(n2ncc3ccc(-c4noc(N5CCN(C(=O)OC(C)(C)C)CC5)n4)cc32)C1 [Compound 897] | > 45 | 0.06 | 
